System: NPY Y2 receptor
Test: Hyperoxia/ischemia-induced retinal neovascularization (retinopathy) in newborn rats, fluorescent dextran flat-mount vessel count
Type: in vivo, rat (Sprague Dawley)
Details: for Retinal capillary vessel formation in fluorescein images: fluorescence microscopy of flat-mounted retinas, FIG. 3; for Quantitated neovascularization (amount of retinal vessels crossed by a constant length line), Mean ± SD / Quantitated neovascularization, Range: newborn rats, intraperitoneal treatment, retinas at age of 20 days; for Quantitated neovascularization (amount of retinal vessels crossed by a constant length line), Mean ± SD: cyclic hyperoxia 40%/80%; for Quantitated neovascularization, Range: cyclic hyperoxia; for Development of retinopathy: treated groups of rat puppies
Description: The present study was undertaken to determine the impact of NPY Y2 receptor targeted intervention on neovascularization and development of retinopathy. Development of retinopathy was induced to newborn rats by cyclic hyperoxia and following relative ischemia-induced retinal neovascularization. Hyperoxemia is toxic to developing retinal vessels causing damage and hypoxia in the retina. After moving to normal air, relative hypoxia follows further promoting neovascularization of the retina.
Three groups of rat puppies were subjected for different treatments; 1) vehicle, 2) NPY Y2 receptor targeted antisense oligonucleotide sequence, and 3) scramble oligonucleotide sequence containing the same oligonucleotides as NPY Y2 receptor targeted antisense oligonucleotide sequence. The treatments were administered intraperitoneally. The retinal vessels were investigated and retinopathic changes were compared between treatment groups.
Retinopathy was assessed after injection of fluorescent-labelled dextran to the circulation. The eyes were flat-mounted on slides and the retinal vessels were visualized and investigated by fluorescence microscopy. Statistical differences were calculated between the study groups.
Study protocol was approved by the Joint Ethics Committee of Turku University. Development of retinopathy was induced to newborn rats (Sprague Dawley) by cyclic hyperoxia and following relative ischemia. Hyperoxia is toxic to developing retinal vessels causing damage and hypoxia in the retina, which induces neovascularization. After moving to normal air, relative hypoxia follows further promoting neovascularization of the retina. Hypoxia is one of the major causes of retinal neovascularization in human retinopathies also. The newborn rats were kept in a hyperoxic incubator with their mothers. Retinal neovascularization was induced simultaneously for all three groups of puppies. One treatment group consisted originally of 7 puppies, which underwent cyclic hyperoxia at the age of 3 days, continued until at the age of 14 days and remained in normal room air from the age of 14 to 17 days. The amount of oxygen inside the incubator was kept at 40% and 80% in 12 hour cycles for 10 days (days from 3 to 13).
The three groups of puppies were subjected for different treatments; 1) plain vehicle, 2) NPY Y2 receptor targeted antisense oligodeoxynucleotide sequence (5′-CCTCTGCACCTAATGGGCCC-3′ (SEQ ID NO:4), containing 20 thioate modified bases) diluted in vehicle and 3) scramble oligodeoxynucleotide sequence containing the same deoxynucleotides as NPY Y2 receptor targeted antisense oligodeoxynucleotide sequence but in a random order (5′-CCATGGTAATCCGCCGCTCC-3′ (SEQ ID NO:5), containing 20 thioate modified bases) diluted in vehicle. The treatments were administered intraperitoneally. The retinal vessels were investigated and retinopathic changes were compared between treatment groups. The used NPY Y2 receptor targeted antisense deoxynucleotide sequence was designed complementary to next 20 bases from NPY Y2 gene transcription initiation codon (ATG).
At the age of 20 days, rats were decapitated and eyes were collected. Retinopathy and retinal neovascularization was assessed after an injection of fluorescent-labelled dextran to the circulation trough heart puncture. One eye from each puppy was used for visualization of retinal vessels. The eyes were flat-mounted on slides and the retinal vessels were visualized and investigated by fluorescence microscopy. Pictures of retinas were acquired using a Leica DMR/DC 100 microscope and Leica DC Wiever software.
The amount of retinal capillaries was analyzed by counting the amount of vessels crossed by a constant length line using plot profile analysis (Image-J 2.6 program). Each retina was analyzed in 3-5 representative areas and the mean values were used for further statistical analysis. Only unfolded retinal preparations were used in order to avoid artificial images of neovascularization. […]

[1] = post hoc analysis, less neovascularization

5′-CCATGGTAATCCGCCGCTCC-3′ (CCATGGTAATCCGCCGCTCC; DNA, all phosphorothioate, methylation of C not given here) [Scramble, reference compound]
Retinal capillary vessel formation in fluorescein images: irregular and disrupted | Quantitated neovascularization (amount of retinal vessels crossed by a constant length line), Mean ± SD: 31.12 ± 0.93 | Quantitated neovascularization, Range: 30.33-32.25 | Difference in retinal neovascularization versus vehicle treatment group (post hoc analysis): no difference | Development of retinopathy: evident

5′-CCTCTGCACCTAATGGGCCC-3′ (antisense CCTCTGCACCTAATGGGCCC; DNA, all phosphorothioate, methylation of C not given here) [Y2-antisense, NPY Y2 receptor targeted antisense oligodeoxynucleotide, complementary to rat NPY Y2 mRNA, next 20 bases from initiation codon]
Retinal capillary vessel formation in fluorescein images: regular and continuous | Quantitated neovascularization (amount of retinal vessels crossed by a constant length line), Mean ± SD: 24.58 ± 0.84 | Quantitated neovascularization, Range: 23.75-25.75 | 95% confidence interval for the difference compared to scramble treatment group (post hoc analysis): 3.76-9.31 | 95% confidence interval for the difference compared to vehicle treatment group (post hoc analysis): 2.48-8.33 | Mean difference in neovascularization compared to scramble treatment group [1]: 6.53 | Mean difference in neovascularization compared to vehicle treatment group [1]: 5.40 | Development of retinopathy: prevented
